# Data published in US9937217B2, “Method of inhibiting ABCG2 and related treatments” (The United States of America, as represented by the …, priority 2007, dated 2018).
# Several values for one entry are separate records, joined by “and”; a condition that tells them apart may be missing. Equal values may be shown once. Read-outs that look alike come from different tables or passages of the source.
# Tests used:
# ABCG2 [1] = biological target: T1, ABCG2 (Homo sapiens, UniProt Q9UNQ0); assay: BODIPY-prazosin efflux, ABCG2-transfected HEK293 cells (flow cytometry); conditions: 10 μM compound
# T1 sequence (Q9UNQ0 1-655): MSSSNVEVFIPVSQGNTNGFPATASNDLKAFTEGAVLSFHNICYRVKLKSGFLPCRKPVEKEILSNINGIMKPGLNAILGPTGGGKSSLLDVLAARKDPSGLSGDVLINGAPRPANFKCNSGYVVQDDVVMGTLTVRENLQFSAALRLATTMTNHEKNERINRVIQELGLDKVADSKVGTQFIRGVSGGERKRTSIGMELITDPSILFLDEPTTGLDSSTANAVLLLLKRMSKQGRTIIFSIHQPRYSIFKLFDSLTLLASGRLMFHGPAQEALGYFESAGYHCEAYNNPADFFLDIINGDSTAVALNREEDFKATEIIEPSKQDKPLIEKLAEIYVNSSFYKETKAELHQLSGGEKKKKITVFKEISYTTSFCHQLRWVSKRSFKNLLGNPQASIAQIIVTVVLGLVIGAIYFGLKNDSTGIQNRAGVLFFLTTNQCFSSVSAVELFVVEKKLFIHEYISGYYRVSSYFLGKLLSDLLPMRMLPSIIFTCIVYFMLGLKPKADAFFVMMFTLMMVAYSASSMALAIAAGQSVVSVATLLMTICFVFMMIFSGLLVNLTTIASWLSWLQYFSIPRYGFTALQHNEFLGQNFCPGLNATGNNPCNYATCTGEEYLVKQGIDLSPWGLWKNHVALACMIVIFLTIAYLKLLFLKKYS
# Protocol: (§1) APC fluorescence is measured with a 635 nm read diode laser and 561 nm longpass filter. At least 10000 events are collected. Dead cells are eliminated based on propidium iodide exclusion.
# (§2) Cells are then washed and incubated in substrate-free medium continuing with or without inhibitor for 1 h.
# NCI-H460/MX20 cells = assay: Sensitization of ABCG2-overexpressing cells to killing by mitoxantrone (XTT assay); assay type: cell-based, human; conditions: for MX sensitization: % NCI-H460/MX20 cell survival in the presence of compound and mitoxantrone: 10 μM compound
# Protocol: After removal of mitoxantrone, cells are further grown in the same medium without mitoxantrone for 5-30 days. These cells are designated NCI-H460/MX20. Parental cells (low ABCG2 expression) (Robey et al., vide supra) are maintained in the same medium without mitoxantrone. […] MRP1-transfected HEK293 cells are maintained in 5 μM etoposide.
# Final DMSO concentration is 0.2% (v/v).
# ABCG2 [2] = biological target: T1, ABCG2; assay: Photoaffinity labeling of ABCG2 with [125I]-IAAP in MCF-7 FLV1000 membranes; assay type: binding; conditions: 20 μM compound; for activity at 10 min, 20 µM: human, crude membranes of MCF-7 FLV1000 cells expressing ABCG2, pH 7.5, probe [125I]-IAAP, 3-6 nM (2200 Ci/mmole), read-out: Blocking of 125I-IAAP binding: % of control binding
# Protocol: ABCG2 expressed in MCF-7 FLV1000 cells is photo-labeled with [^125I]-IAAP as described previously (Shukla et al., Biochemistry, 45: 8940-51 (2006)). Briefly, crude membranes (1 mg protein/me of MCF-7 FLV1000 cells are incubated with 20 μM of the indicated compound for 10 min at room temperature in 50 mM Tris-HCl, pH 7.5. 3-6 nM [^125I]-IAAP (2200 Ci/mmole) (PerkinElmer Life Sciences, Wellesley, Mass.) is added, and the samples are incubated for an additional 5 min under subdued light. The samples are then exposed to ultraviolet (UV, 365 nm) light for 10 min, and the labeled ABCG2 is immunoprecipitated using BXP-21 antibody. The radioactivity incorporated into the ABCG2 band is quantified using the STORM 860 PhosphorImager system (Molecular Dynamics, Sunnyvale, Calif.) and ImageQuaNT software (Molecular Dynamics).
# ABCG2 [3] = biological target: T1, ABCG2; assay type: cell-based; conditions: compound, ABCG2-transfected HEK293
# Protocol: At least 10000 events are collected. Dead cells are eliminated based on propidium iodide exclusion.
# Five compounds are examined for their ability to increase surface staining of the 5D3 antibody.
# The 5D3 shift assay is performed as described by Ozvegy-Laczka et al. with minor modifications. […] Cells are subsequently washed and incubated with APC-labeled goat anti-mouse secondary antibody (1:35) for 30 min after which the cells are washed and analyzed.
# ABCG2 [4] = biological target: T1, ABCG2; conditions: NCI-H460/MX20 cells; Henrich et al., 2006; read-out: Pheophorbide a IC50 for FTC; cited from earlier work
# ABCG2 [5] = biological target: T1, ABCG2; assay: Pheophorbide a (PhA) accumulation screening assay; assay type: cell-based
# Protocol: (§3) To prepare the cell culture, NCI-H460 human lung non-small-cell carcinoma cells (National Cancer Institute, Frederick, Md.) are selected for over-expression of ABCG2 by maintenance in RPMI1640/10% FBS supplemented with 20 nM mitoxantrone (Robey et al., Biochim. Biophys. Acta, 1512: 171-82 (2001)). After removal of mitoxantrone, cells are further grown in the same medium without mitoxantrone for 5-30 days. These cells are designated NCI-H460/MX20. Parental cells (low ABCG2 expression) (Robey et al., vide supra) are maintained in the same medium without mitoxantrone. ABCG2-transfected or MDR1-transfected (i.e. Pgp-expressing) HEK293 cells are maintained in 2 mg/ml G418 as previously described (Robey et al., Br. J. Cancer, 89: 1971-8 (2003)). MRP1-transfected HEK293 cells are maintained in 5 μM etoposide. MCF-7 FLV1000 cells are maintained in Richter's medium with 10% FCS and Pen/strep with 1000 nM flavopiridol (Robey et al., Clin. Cancer Res., 7: 145-52 (2001)).
# Accumulation of pheophorbide a, a fluorescent ABCG2 substrate (Jonker et al., Proc. Natl. Acad. Sci. USA, 99: 15649-54 (2002) and Robey et al., Cancer Res., 64: 1242-6 (2004)), formed the basis of the assay for inhibitors of ABCG2 activity (Henrich et al., J. Biomol. Screen, 11: 176-83 (2006)). Briefly, NCI-H460/MX20 cells are transferred to black wall, clear bottom 384-well polylysine-coated assay plates (Corning, Corning, N.Y.) and allowed to attach for several hours. Pheophorbide a (1 μM final concentration) is added immediately followed by compounds or vehicle (DMSO/PBS) control and incubated an additional 18 h. After removal of medium and washing with PBS containing Ca^2+ and Mg^2+, fluorescence intensity is read on a Tecan Safire fluorescence plate reader in bottom read mode, 395 nm excitation, 670 nm emission. Each plate has control wells containing 10 μM (final concentration) FTC. Data are normalized to FTC and reported as % of FTC fluorescence.
# Pgp = Pgp (Homo sapiens, UniProt P08183)
# Protocol: as §1, §2
# MRP1 = biological target: T2, MRP1 (Homo sapiens, UniProt P33527); assay: Calcein efflux, MRP1-transfected HEK293 cells (flow cytometry); assay type: cell-based; conditions: 10 μM compound
# T2 construct: expressed in transfected cells; host or cells: HEK293
# Protocol: as §1, §2
# NCI-H460 cells = assay: Mitoxantrone / compound cytotoxicity in parental cells (XTT assay); assay type: cell-based; conditions: Homo sapiens, 48 h; unselected NCI-H460 cells, 30 μM mitoxantrone, 2 days, (sd); read-out: Cell numbers, % of control (vehicle), mitoxantrone alone
# Protocol: as §3
# The ability of compounds to sensitize NCI-H460/MX20 cells to killing by mitoxantrone is assessed as described in Henrich et al. (J. Biomol. Screen, 11: 176-83 (2006)). ABCG2 over-expressing cells or parental cells are treated with mitoxantrone in the presence or absence of 10 μM compound (or 1 μM FTC) and cell numbers assessed after 2 d by an XTT assay (Scudiero et al., Cancer Res., 48: 4827-33 (1988)). […]
# [6] = NCI-H460/MX20 cells, PhA accumulation, read-out: Pheophorbide a IC50
# Pgp, sequence (P08183 whole entry): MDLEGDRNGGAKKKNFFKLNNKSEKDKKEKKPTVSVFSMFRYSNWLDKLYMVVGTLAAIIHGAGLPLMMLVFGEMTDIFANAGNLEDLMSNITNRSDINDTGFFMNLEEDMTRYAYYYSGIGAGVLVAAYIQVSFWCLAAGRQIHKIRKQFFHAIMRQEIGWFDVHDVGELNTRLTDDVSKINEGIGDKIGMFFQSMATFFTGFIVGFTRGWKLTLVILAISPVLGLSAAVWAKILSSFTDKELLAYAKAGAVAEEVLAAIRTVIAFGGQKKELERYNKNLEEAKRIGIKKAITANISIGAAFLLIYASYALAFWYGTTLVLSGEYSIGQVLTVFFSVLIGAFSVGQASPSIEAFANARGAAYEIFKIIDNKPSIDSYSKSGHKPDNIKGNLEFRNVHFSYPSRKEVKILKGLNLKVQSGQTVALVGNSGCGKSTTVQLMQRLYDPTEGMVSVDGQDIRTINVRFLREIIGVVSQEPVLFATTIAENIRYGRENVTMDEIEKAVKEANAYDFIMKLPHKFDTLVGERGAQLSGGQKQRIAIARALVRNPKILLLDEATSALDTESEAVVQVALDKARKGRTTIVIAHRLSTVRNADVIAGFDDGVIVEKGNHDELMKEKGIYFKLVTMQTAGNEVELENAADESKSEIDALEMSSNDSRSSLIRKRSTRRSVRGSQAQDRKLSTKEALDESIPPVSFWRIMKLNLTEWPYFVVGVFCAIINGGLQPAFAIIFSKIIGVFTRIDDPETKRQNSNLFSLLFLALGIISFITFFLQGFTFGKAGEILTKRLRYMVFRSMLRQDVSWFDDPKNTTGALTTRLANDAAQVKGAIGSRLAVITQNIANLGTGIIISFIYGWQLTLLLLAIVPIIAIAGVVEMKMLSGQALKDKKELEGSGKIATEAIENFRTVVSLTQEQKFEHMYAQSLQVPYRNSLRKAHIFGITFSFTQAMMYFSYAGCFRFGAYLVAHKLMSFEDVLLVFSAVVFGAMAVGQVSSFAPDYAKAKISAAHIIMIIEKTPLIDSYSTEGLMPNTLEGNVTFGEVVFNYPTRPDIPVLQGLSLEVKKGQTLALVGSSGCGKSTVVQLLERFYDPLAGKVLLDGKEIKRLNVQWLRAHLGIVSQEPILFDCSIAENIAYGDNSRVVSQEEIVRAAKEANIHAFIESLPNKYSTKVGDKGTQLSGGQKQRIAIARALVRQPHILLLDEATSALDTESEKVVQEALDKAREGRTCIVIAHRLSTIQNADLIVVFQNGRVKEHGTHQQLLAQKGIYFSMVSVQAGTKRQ
# T2 sequence (P33527 whole entry): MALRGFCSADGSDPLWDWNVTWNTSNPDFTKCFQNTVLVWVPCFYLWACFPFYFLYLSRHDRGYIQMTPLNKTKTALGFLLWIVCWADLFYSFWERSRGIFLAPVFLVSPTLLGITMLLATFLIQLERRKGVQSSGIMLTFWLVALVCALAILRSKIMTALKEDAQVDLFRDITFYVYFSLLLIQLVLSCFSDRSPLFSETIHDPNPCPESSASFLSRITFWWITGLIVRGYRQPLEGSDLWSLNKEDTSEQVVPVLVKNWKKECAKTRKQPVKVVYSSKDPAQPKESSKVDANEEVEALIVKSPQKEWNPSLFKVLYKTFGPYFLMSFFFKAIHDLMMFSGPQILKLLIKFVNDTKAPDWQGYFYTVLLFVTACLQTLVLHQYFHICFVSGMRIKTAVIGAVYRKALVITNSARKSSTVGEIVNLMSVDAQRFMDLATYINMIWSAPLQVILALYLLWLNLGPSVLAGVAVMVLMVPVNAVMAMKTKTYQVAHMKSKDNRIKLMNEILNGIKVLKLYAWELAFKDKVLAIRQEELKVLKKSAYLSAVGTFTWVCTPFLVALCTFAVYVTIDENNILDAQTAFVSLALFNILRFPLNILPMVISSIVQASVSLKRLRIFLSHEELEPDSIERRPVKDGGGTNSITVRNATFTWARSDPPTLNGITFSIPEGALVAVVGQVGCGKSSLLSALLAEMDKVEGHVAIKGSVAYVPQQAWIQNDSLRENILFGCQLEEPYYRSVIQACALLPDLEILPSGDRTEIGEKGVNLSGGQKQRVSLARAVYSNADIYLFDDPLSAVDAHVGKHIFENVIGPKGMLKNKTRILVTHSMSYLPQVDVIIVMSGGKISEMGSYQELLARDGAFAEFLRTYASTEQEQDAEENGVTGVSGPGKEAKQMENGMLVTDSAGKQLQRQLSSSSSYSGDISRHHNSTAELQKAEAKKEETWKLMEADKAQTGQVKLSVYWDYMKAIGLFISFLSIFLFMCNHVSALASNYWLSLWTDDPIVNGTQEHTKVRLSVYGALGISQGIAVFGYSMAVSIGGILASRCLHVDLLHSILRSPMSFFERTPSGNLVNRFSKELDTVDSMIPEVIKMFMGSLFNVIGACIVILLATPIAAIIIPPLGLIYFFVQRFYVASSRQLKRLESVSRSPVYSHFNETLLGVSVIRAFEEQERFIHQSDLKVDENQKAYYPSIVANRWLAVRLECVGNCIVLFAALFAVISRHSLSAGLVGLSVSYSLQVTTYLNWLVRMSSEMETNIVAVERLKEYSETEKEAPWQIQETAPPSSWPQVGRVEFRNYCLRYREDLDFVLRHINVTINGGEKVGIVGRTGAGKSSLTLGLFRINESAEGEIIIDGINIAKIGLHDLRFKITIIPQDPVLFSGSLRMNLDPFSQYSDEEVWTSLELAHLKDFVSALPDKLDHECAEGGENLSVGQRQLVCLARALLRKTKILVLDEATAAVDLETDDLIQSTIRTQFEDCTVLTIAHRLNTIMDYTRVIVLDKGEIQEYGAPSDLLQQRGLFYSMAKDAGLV
SMILES,BODIPY-prazosin efflux: treated/control ratio (ABCG2 [1]),"MX sensitization: % NCI-H460/MX20 cell survival in the presence of FTC and mitoxantrone (NCI-H460/MX20 cells; 1 μM FTC, 30 μM mitoxantrone, 2 d)",Blocking of 125I-IAAP binding: % of control binding (ABCG2 [2]),5D3 staining: treated/control ratio (ABCG2 [3]),IC50 (ABCG2 [4]),"Pheophorbide a total, % of FTC response (ABCG2 [5]; 10 μM compound, NCI-H460/MX20 cells, normalized to 10 μM FTC)","Pgp inhibition, rhodamine efflux: treated/control ratio (Pgp; human, 10 µM)","MX sensitization: % NCI-H460/MX20 cell survival in the presence of compound and mitoxantrone (NCI-H460/MX20 cells; 30 μM mitoxantrone, 2 d)","activity at 10 min, 20 µM (ABCG2 [2])","MRP1 inhibition, calcein efflux: treated/control ratio (MRP1)",IC50 (ABCG2 [5]),"Pheophorbide a total, % of FTC response (ABCG2 [5]; human, 18 h, 10 µM)",IC50 (ABCG2 [5]; [6]),"Cell number, % of control, mitoxantrone alone (NCI-H460/MX20 cells; NCI-H460/MX20 cells, mitoxantrone treatment, (sd))",activity at 30 µM (NCI-H460 cells),"Pgp inhibition, rhodamine efflux: treated/control ratio (Pgp; valspodar 3 μg/mL, positive control)"
"COc1ccc2c3c([nH]c2c1)[C@H](C=C(C)C)N1C(=O)[C@@H]2CCCN2C(=O)[C@@H]1C3 [FTC, fumitremorgin C, reference compound]",3.5,24.5±1.5% and 24.5%,32.7%,3.7,0.8 µM,100%,–,–,–,–,–,–,–,–,–,–
Cn1ncc2c(Nc3cccc(Cl)c3)nc(Nc3cccc(Cl)c3)nc21 [NSC11668],5.9,–,–,4.0,–,–,0.73,21.9%,24.6%,1.2,4.5 µM,84.1%,–,–,–,–
Cn1ncc2c(NCCc3ccccc3)nc(Cl)nc21 [NSC19139],3.5,–,–,3.6,–,–,0.77,30.0%,33.5%,1.3,–,76.6%,2.6 µM,–,–,–
O=C(O)c1ccc(/C=N/N=C2c3ccccc3-c3ccccc32)cc1 [NSC120688],2.0,–,–,3.7,–,–,0.84,20.9%,19.1%,0.81,–,67.2%,4.3 µM,–,–,–
COc1cc2c[n+](C)c3c4cc(OC)c(OC)cc4ccc3c2cc1OC [NSC168201],2.6,–,–,3.7,–,–,0.64,21.2%,34.2%,0.81,–,104.5%,3.9 µM,–,–,–
Cc1cc(O)nc2cc3oc4ccccc4c3cc12 [NSC375985],3.6,–,–,3.2,–,–,0.84,27.6%,48.7%,1.8,3.7 µM,63.8%,–,–,–,–
"O=C1c2c(O)ccc(O)c2C(=O)c2c(NCCNCCO)ccc(NCCNCCO)c21 [mitoxantrone, reference compound]",–,–,–,–,–,–,–,–,–,–,–,–,–,56.1±2.1%,21.6 ± 1.6%,–
"C/C=C/C[C@@H](C)C(=O)[C@H]1C(=O)N[C@@H](C(C)C)C(=O)N(C)CC(=O)N(C)[C@@H](CC(C)C)C(=O)N[C@@H](C(C)C)C(=O)N(C)[C@@H](CC(C)C)C(=O)N[C@@H](C)C(=O)N[C@H](C)C(=O)N(C)[C@@H](CC(C)C)C(=O)N(C)[C@@H](CC(C)C)C(=O)N(C)[C@@H](C(C)C)C(=O)N1C [valspodar, reference compound]",–,–,–,–,–,–,–,–,–,–,–,–,–,–,–,14.9
